Laboratory results published in patent US20160151369A1, “SUBSTITUTED 3-PHENYLPROPYLAMINE DERIVATIVES FOR THE TREATMENT OF OPHTHALMIC DISEASES AND DISORDERS” (ACUCELA INC., priority 2013, published 2016).

Test system: isomerase (recovery of 11-cis-retinal after bleaching)
Experiment: In vivo murine isomerase assay (Table 3)
Conditions: Mus musculus, po, mice
Method: The capability of compounds described herein to inhibit isomerase was determined by an in vivo murine isomerase assay. […] The recovery of 11-cis-retinal after bleaching can be used to estimate the activity of isomerase in vivo. Delayed recovery, as represented by lower 11-cis-retinal oxime levels, indicates inhibition of isomerization reaction.
Mice were gavaged with the test compound. […] The mice were allowed to recover 2 hours in the dark. The animals were then sacrificed by carbon dioxide inhalation. Retinoids were extracted from the eye and the regeneration of 11-cis-retinal was assessed at various time intervals.
After the mice were sacrificed, the eyes were immediately removed and placed in liquid nitrogen for storage.
The eyes were placed in 500 μL of bis-tris propane buffer (10 mM, pH˜7.3) and 20 μL of 0.8M hydroxile amine (pH˜7.3). The eyes were cut up into small pieces with small iris scissors and then thoroughly homogenized at 30000 rpm with a mechanical homogenizer (Polytron PT 1300 D) in the tube until no visible tissue remained. 500 μL of methanol and 500 μL of heptane were added to each tube. The tubes were attached to a vortexer so that the contents were mixed thoroughly for 15 minutes in room temperature. The organic phase was separated from the aqueous phase by centrifugation for 10 min at 13K rpm, 4° C. 240 μL of the solution from the top layer (organic phase) was removed and transferred to clean 300 μl glass inserts in HPLC vials using glass pipette and the vials were crimped shut tightly.
The samples were analyzed on an Agilent 1100 HPLC system with normal phase column: SILICA (Beckman Coutlier, dp 5 μm, 4.6 mM×250 mM). […] Loading volume for each sample was 100 μl; detection wavelength was 360 nm. The area under the curve for 11-cis retinal oxime was calculated by Agilent Chemstation software and was recorded manually. Data processing was performed using Prizm software.
Positive control mice (no compound administered) were sacrificed fully dark-adapted and the eye retinoids analyzed. Light (bleached) control mice (no compound administered) were sacrificed and retinoids isolated and analyzed immediately after light treatment.
A time course study was performed to determine the isomerase inhibitory activity of the test compound. […] The animals were then “photo-bleached” (5000 Lux white light for 10 minutes) at 2, 4, 8, 16 and 24 hours after dosing, and returned to darkness to allow recovery of the 11-cis-retinal content of the eyes. Mice were sacrificed 2 hours after bleaching, eyes were enucleated, and retinoid content is analyzed by HPLC.
Recovery control mice (vehicle-only treated) were light-treated and left to recover for 2 hours in the dark before sacrifice and analysis. Light control mice (vehicle only treated) were sacrificed for analysis immediately after photo-bleaching.
An in vivo dose response isomerase inhibition study was performed with test compound. […] Recovery and retinoid analysis were performed as described above. Dark control mice were vehicle-only treated, sacrificed fully dark adapted without light treatment, and analyzed. Recovery control mice and light control mice were included in the study as per the initial phase.

Structure (SMILES)	inhibition at 1 mg/kg (2 h) [%]	inhibition at 1 mg/kg (4 h) [%]	also measured
NCC[C@@H](O)c1cccc(OCC2CCCOC2)c1 (mixture of isomers) [Example 3, (1R)-3-Amino-1-(3-((tetrahydro-2H-pyran-3-yl)methoxy)phenyl)propan-1-ol]	98.7	94.2	inhibition at 0.01 mg/kg (2 h): 1.2%; inhibition at 0.03 mg/kg (2 h): 2.7%; inhibition at 0.1 mg/kg (2 h): 4.2%; inhibition at 0.3 mg/kg (2 h): 75.2%; inhibition at 3 mg/kg (2 h): 102%; inhibition at 0.3 mg/kg (4 h): 59.7%; inhibition at 0.3 mg/kg (8 h): 14.8%; inhibition at 0.3 mg/kg (16 h): 1.6%; inhibition at 0.3 mg/kg (24 h): 4.1%
NCC[C@@H](O)c1cccc(OCC2CCCSC2)c1 (mixture of isomers) [Example 7, (1R)-3-Amino-1-(3-((tetrahydro-2H-thiopyran-3-yl)methoxy)phenyl)propan-1-ol]	60.5	68	inhibition at 1 mg/kg (8 h): 40.3%
NCC[C@@H](O)c1cccc(OCC2CCCS(=O)(=O)C2)c1 (mixture of isomers) [Example 10, 3-((3-((R)-3-Amino-1-hydroxypropyl)phenoxy)methyl)tetrahydro-2H-thiopyran 1,1-dioxide]		-7.6	
NCC[C@@H](O)c1cccc(OCC2Cc3ccccc3O2)c1 (mixture of isomers) [Example 13, (1R)-3-Amino-1-(3-((2,3-dihydrobenzofuran-2-yl)methoxy)phenyl)propan-1-ol]	62.1		
NCC[C@@H](O)c1cccc(OCC2CCCO2)c1 (mixture of isomers) [Example 14, (1R)-3-Amino-1-(3-((tetrahydrofuran-2-yl)methoxy)phenyl)propan-1-ol]	79.2	59.8	inhibition at 1 mg/kg (8 h): 0.8%
NCC[C@@H](O)c1cccc(OCC2COc3ccccc3C2)c1 (mixture of isomers) [Example 19, (1R)-3-Amino-1-(3-(chroman-3-ylmethoxy)phenyl)propan-1-ol]		91.4	inhibition at 0.3 mg/kg (2 h): 49.4%; inhibition at 0.3 mg/kg (4 h): 40%; inhibition at 0.3 mg/kg (8 h): 15.5%
NCCC(O)c1cccc(OCC2CCOCC2)c1 (centres unmarked) [Example 2, 3-Amino-1-(3-((tetrahydro-2H-pyran-4-yl)methoxy)phenyl)propan-1-ol]		89.9	
NCC[C@@H](O)c1cccc(OCc2ccncc2)c1 [Example 4, (R)-3-amino-1-(3-(pyridin-4-ylmethoxy)phenyl)propan-1-ol]		-8.7	
NCC[C@@H](O)c1cccc(OCc2cccnc2)c1 [Example 5, (R)-3-Amino-1-(3-(pyridin-3-ylmethoxy)phenyl)propan-1-ol]		3.1	
NCC[C@@H](O)c1cccc(OCC2CCSCC2)c1 [Example 8, (R)-3-Amino-1-(3-((tetrahydro-2H-thiopyran-4-yl)methoxy)phenyl)propan-1-ol]		33.2	
NCC[C@@H](O)c1cccc(OCC2CCS(=O)(=O)CC2)c1 [Example 9, (R)-4-((3-(3-Amino-1-hydroxypropyl)phenoxy)methyl)tetrahydro-2H-thiopyran 1,1-dioxide]		-8.2	
CC(=O)N1CCC(COc2cccc([C@H](O)CCN)c2)CC1 [Example 11, (R)-1-(4-((3-(3-Amino-1-hydroxypropyl)phenoxy)methyl)piperidin-1-yl)ethanone]	-4.7	2.6	inhibition at 1 mg/kg (8 h): -3.8%
Cc1cccc(COc2cccc([C@H](O)CCN)c2)n1 [Example 12, (R)-3-Amino-1-(3-((6-methylpyridin-2-yl)methoxy)phenyl)propan-1-ol]		11.2	
COC(=O)N1CCC(COc2cccc([C@H](O)CCN)c2)CC1 [Example 17, (R)-Methyl 4-((3-(3-amino-1-hydroxypropyl)phenoxy)methyl)piperidine-1-carboxylate]	93	88	inhibition at 0.01 mg/kg (2 h): 0%; inhibition at 0.03 mg/kg (2 h): -2%; inhibition at 0.1 mg/kg (2 h): 9%; inhibition at 0.3 mg/kg (2 h): 8%; inhibition at 3 mg/kg (2 h): 100%; inhibition at 1 mg/kg (8 h): 25%; inhibition at 1 mg/kg (16 h): -1%; inhibition at 1 mg/kg (24 h): -8%
NCC[C@@H](O)c1cccc(NCC2CCOCC2)c1 [Example 23, (R)-3-Amino-1-(3-(((tetrahydro-2H-pyran-4-yl)methyl)amino)phenyl)propan-1-ol]	4.4	-1.4	inhibition at 1 mg/kg (8 h): 1.5%
NCC[C@@H](O)c1cccc(OCC2CCCC(=O)N2)c1 (some centres unmarked) [Example 27]		9	
NCC[C@@H](O)c1cccc(OCc2cccs2)c1 [Example 28, (R)-3-Amino-1-(3-(thiophen-2-ylmethoxy)phenyl)propan-1-ol]		50.6	
NCC[C@@H](O)c1cccc(OCc2ccsc2)c1 [Example 29, (R)-3-Amino-1-(3-(thiophen-3-ylmethoxy)phenyl)propan-1-ol]		27.4	
NC/C=C/c1cccc(OCC2CCOCC2)c1 [Example 31, (E)-3-(3-((Tetrahydro-2H-pyran-4-yl)methoxy)phenyl)prop-2-en-1-amine]	11.3		
NCCCc1cccc(OCC2CCOCC2)c1 [Example 32, 3-(3-((Tetrahydro-2H-pyran-4-yl)methoxy)phenyl)propan-1-amine]	14.2		
CNCC[C@@H](O)c1cccc(OCC2CCOCC2)c1 [Example 33, (R)-3-(Methylamino)-1-(3-((tetrahydro-2H-pyran-4-yl)methoxy)phenyl)propan-1-ol]	65.2	54.5	inhibition at 1 mg/kg (8 h): 10.9%; inhibition at 1 mg/kg (16 h): -0.8%; inhibition at 1 mg/kg (24 h): 1.8%
NCC[C@@H](O)c1cccc(NCC2CCCCC2)c1 [reference compound]		96	
